Test results reported in patent US20220241263A1, “PD-1 AXIS BINDING ANTAGONIST TO TREAT CANCER WITH GENETIC MUTATIONS IN SPECIFIC GENES” (Ares Trading S.A., priority 2019, published 2022).
Like-named read-outs stand apart in the source and are kept apart here.

Columns and labels:
[1] = test system: patients with advanced renal cell carcinoma
From the text: Transcript levels were quantitated by the Personalis ACE Cancer Transciptome Analysis pipeline which uses STAR version 2.4.2a-p1 to align reads to the NCBI hs37d5 annotation 105 reference genome and produces Transcripts Per Million (TPM) values for each gene. TPM values were log2 transformed for further analysis.
Weighted Gene Co-Expression Network Analysis (WGCNA) was used to find co-expressed modules in the 720 baseline transcriptomic samples. […] The soft power of 6 was chosen based on goodness of fit to a scale-free network. A signed WGCNA network was constructed in R^37 with mergeCutHeight set to 0.25 and reassignThreshold set to 0. After removing non-coding genes and modules with size <10, 25 modules were identified. Gene signature scores were computed from the average expression of genes in a module. Univariate Cox Proportional Hazards (Cox PH) model was used to assess the dependence of PFS on each gene signature, which was categorized into high vs low groups according to median signature score. Multivariate analysis was also carried out adjusting for age and sex. Modules were annotated through identifying top enriched gene sets via hypergeometric tests using public gene set collections including the MSigDB Hallmark, GO Biological Process and LM22.
To assess the robustness of identified gene modules, next was carried out a consensus WGCNA analysis. […] The soft power of 6 was chosen based on goodness of fit to a scale-free network. 720 baseline data were randomly subsampled down to 80% of samples for 1,000 times. With each subsampled dataset, we constructed a co-expression network using the WGCNA procedure as described above. An adjacency matrix was constructed by counting the frequencies two genes were clustered into the same network module. A consensus network was then constructed using the new adjacency matrix via the standard WGCNA approach. Edges were then filtered by adjacency measure of 0.8. Modules with size <10 were removed. Consensus WGCNA identified 23 modules. Hypergeometric tests were then carried out to annotate modules as described above.
To refine the 306-gene immune response module, we selected genes annotated for immune-related functionality and had univariate Cox PH p-value <0.01 in the combination arm.

[2] = test system: patients with advanced renal cell carcinoma; remark: listed apart in the source
Protocol: Tumor samples were collected from patients in Example 2 and were subject to whole exome sequencing to identify genetic mutations. Software tools BWA and a combination of MuTect, Vardict, Picard, and other vendor tools were used.
The Cox proportional hazards (PH) regression model was used to assess the dependence of progression-free survival (PFS) on mutational status of each gene. In addition, multivariate analysis was also carried out adjusting for age, sex and tumor mutation burden. […] Genes were filtered based on the following criteria: • A. Mutated at 5% or more in the B9991003 cohort • B. Interaction term P-value<0.05 in both model (1) and model (2), testing for treatment specific differences of the mutations on survival outcome. • C.

[3] = test system: patients with advanced renal cell carcinoma; experiment: CD8 immunohistochemistry study: PFS by number of CD8+ cells at the invasive margin in the phase 3 study; assay type: in vivo, human
Protocol: CD8 expression was assessed by immunohistochemistry using clone C8/144B and reported in terms of the number of CD8+ cells in relation to the total number of […] or at the invasive margin, with the median value as the cut point.

[4] = test system: patients with advanced RCC (aRCC); experiment: Phase 3 clinical trial of avelumab in combination with axitinib versus sunitinib (NCT02684006); assay type: in vivo, human
Protocol: Patients will be stratified according to ECOG performance status (0 versus 1) and LDH (>1.5 ULN vs. ≤1.5 ULN). In arm A (avelumab in combination with axitinib), avelumab will be given as a 1 hour intravenous infusion (IV) every 2 weeks in a 6-week cycle. Axitinib will be given orally (PO) twice daily (BID), with or without food, on a continuous dosing schedule.
Axitinib treatment may be adjusted by dosing interruption with or without dose reduction. Intrapatient axitinib dose escalation may occur if the intrapatient escalation criteria are met.
Study Treatment: Axitinib will be given orally twice daily PO on a continuous daily dosing schedule. Avelumab will be given as a 1 hour intravenous infusion every 2 weeks in a 6-week cycle.
Tumor Assessments: Anti-tumor activity will be assessed by radiological tumor assessments and will be based on RECIST guidelines version 1.1 for primary and secondary endpoints and on immune-related RECIST (irRECIST) guidelines for exploratory endpoints. Tumor assessments will be performed every 6 weeks (Q6W) up to 1 year from first dose therapy; thereafter, tumor assessments will be performed every 2 cycles. […]

[5] = in vivo; cited from earlier work
[6] = patients with CDL163L1 mutation
[7] = patients with CDL163L1 wild type
[8] = patients with LOC728763 mutation
[9] = patients with LOC728763 wild type
[10] = patients with SPATA31C2 mutation
[11] = patients with SPATA31C2 wild type

Compound: CCN(CC)CCNC(=O)c1c(C)[nH]c(/C=C2\C(=O)Nc3ccc(F)cc32)c1C [sunitinib]
- median PFS ([1]; greater than median expression of JAVELIN Renal 101 Immuno Signature): 8.3 months
- median PFS ([1]; less than median expression of JAVELIN Renal 101 Immuno Signature): 9.0 months
- HR for PFS by tumor mutational burden (TMB) ([1]; within treatment arm): 0.79
- HR for PFS, high expression of IMmotion 150 angiogenesis signature ([1]; within treatment arm): 0.64
- HR for PFS, high vs low JAVELIN Renal 101 Angiogenesis Signature ([1]; within treatment arm): 0.56
- HR for PFS, high vs low JAVELIN Renal 101 Immuno Signature ([1]; within treatment arm): 0.98
- Rate of PFS at 15 months ([2]; patients with ABCA1 mutation): 25%
- Rate of PFS at 15 months ([2]; patients with ABCA1 wild type): 25%
- Rate of PFS at 20 months ([2]; patients with ABCA1 wild type): 25%
- Rate of PFS at 15 months ([2]; patients with ARVCF mutation): 43%
- Rate of PFS at 20 months ([2]; patients with ARVCF mutation): 39%
- Rate of PFS at 15 months ([2]; patients with ARVCF wild type): 22%
- Rate of PFS at 20 months ([2]; patients with ARVCF wild type): 22%
- Rate of PFS at 15 months [2, 6]: 15%
- Rate of PFS at 20 months [2, 6]: 15%
- Rate of PFS at 15 months [2, 7]: 25%
- Rate of PFS at 20 months [2, 7]: 25%
- Rate of PFS at 15 months ([2]; patients with DNMT1 mutation): 0%
- Rate of PFS at 20 months ([2]; patients with DNMT1 mutation): 0%
- Rate of PFS at 15 months ([2]; patients with DNMT1 wild type): 25%
- Rate of PFS at 20 months ([2]; patients with DNMT1 wild type): 25%
- Rate of PFS at 15 months ([2]; patients with FOXO1 mutation): 10%
- Rate of PFS at 20 months ([2]; patients with FOXO1 mutation): 10%
- Rate of PFS at 15 months ([2]; patients with FOXO1 wild type): 25%
- Rate of PFS at 20 months ([2]; patients with FOXO1 wild type): 25%
- Rate of PFS at 15 months ([2]; patients with IL16 mutation): 25%
- Rate of PFS at 20 months ([2]; patients with IL16 mutation): 25%
- Rate of PFS at 15 months ([2]; patients with IL16 wild type): 23%
- Rate of PFS at 20 months ([2]; patients with IL16 wild type): 23%
- Rate of PFS at 15 months [2, 8]: 25%
- Rate of PFS at 20 months [2, 8]: 25%
- Rate of PFS at 15 months [2, 9]: 23%
- Rate of PFS at 20 months [2, 9]: 23%
- Rate of PFS at 15 months ([2]; patients with MCR1 mutation): 30%
- Rate of PFS at 15 months ([2]; patients with MCR1 wild type): 30%
- Rate of PFS at 20 months ([2]; patients with MCR1 wild type): 30%
- Rate of PFS at 15 months ([2]; patients with MYH7B mutation): 10%
- Rate of PFS at 15 months ([2]; patients with MYH7B wild type): 25%
- Rate of PFS at 20 months ([2]; patients with MYH7B wild type): 25%
- Rate of PFS at 15 months ([2]; patients with PTEN mutation): 20%
- Rate of PFS at 15 months ([2]; patients with PTEN wild type): 25%
- Rate of PFS at 20 months ([2]; patients with PTEN wild type): 25%
- Rate of PFS at 15 months [2, 10]: 25%
- Rate of PFS at 20 months [2, 10]: 25%
- Rate of PFS at 15 months [2, 11]: 23%
- Rate of PFS at 20 months [2, 11]: 23%
- Rate of PFS at 15 months ([2]; patients with STAB2 mutation): 30%
- Rate of PFS at 20 months ([2]; patients with STAB2 mutation): 30%
- Rate of PFS at 15 months ([2]; patients with STAB2 wild type): 25%
- Rate of PFS at 20 months ([2]; patients with STAB2 wild type): 25%
- median PFS ([3]; high numbers of CD8+ cells at the invasive margin): 7.1 months
- median PFS ([3]; low numbers of CD8+ cells): 11.1 months
- HR for PFS, high vs low numbers of CD8+ cells at the invasive margin ([3]; within treatment arm): 1.42
- patients had died ([4]; PD-L1-positive tumors, median follow-up for overall survival 11.6 and 10.7 months): 44 patients
- objective response rate ([4]; patients with PD-L1-positive tumors): 25.5%

Compound: avelumab: an anti-PD-L1 IgG1 monoclonal antibody
- half-life [5]: 72 to 120 h
